The assay concerns CD2F1 mice, L1210 leukemia ip, survival T/C. Nature of the assay: NCI In Vivo Anticancer Drug Screen. Data for tumor model L1210 Leukemia (intraperitoneal) in CD2F1 (CDF1) mice. The following applies: higher = longer survival. A digest of the protocol:
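In this screen, transplantable tumors were grown in mice given either the compound or its vehicle. Results were expressed as the treated measurement relative to the control measurement.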

The mark [1] stands for this setting: endpoint: mean survival time, dose: 100.0 mg/kg/injection, schedule: Q01DX001 (ip), vehicle: saline with Tween-80.
Setting [2] is: endpoint: mean survival time, dose: 200.0 mg/kg/injection, schedule: Q01DX001 (ip), vehicle: saline with Tween-80.
The mark [3] stands for this setting: endpoint: mean survival time, dose: 400.0 mg/kg/injection, schedule: Q01DX001 (ip), vehicle: saline with Tween-80.
The mark [4] stands for this setting: endpoint: mean survival time, dose: 100.0 mg/kg/injection, schedule: Q01DX009 (ip), vehicle: saline with Tween-80.
Where [5] appears, read: endpoint: mean survival time, dose: 200.0 mg/kg/injection, schedule: Q01DX009 (ip), vehicle: saline with Tween-80.
Where [6] appears, read: endpoint: mean survival time, dose: 400.0 mg/kg/injection, schedule: Q01DX009 (ip), vehicle: saline with Tween-80.
Where [7] appears, read: endpoint: mean survival time, dose: 50.0 mg/kg/injection, schedule: Q01DX009 (ip), vehicle: saline.
The mark [8] stands for this setting: endpoint: mean survival time, dose: 100.0 mg/kg/injection, schedule: Q01DX009 (ip), vehicle: saline.
Setting [9] is: endpoint: mean survival time, dose: 100.0 mg/kg/injection, schedule: Q01DX001 (ip), vehicle: saline.
Where [10] appears, read: endpoint: mean survival time, dose: 75.0 mg/kg/injection, schedule: Q04DX003 (ip), vehicle: saline.
Setting [11] is: endpoint: mean survival time, dose: 100.0 mg/kg/injection, schedule: Q01DX009 (ip), vehicle: other.
[12] abbreviates: endpoint: mean survival time, dose: 200.0 mg/kg/injection, schedule: Q01DX009 (ip), vehicle: other.

Where “and” joins values, the source holds several entries; their conditions need not be identical. Equal entries are not always repeated. Toxic doses and inconclusive results are not listed.

Regarding `O=C(COc1ccc(Cl)c(Cl)c1)NCc1cccc(NC(=O)c2ccc(S(=O)(=O)F)cc2)c1`, the T/C runs as follows: under setting [1], 87 % of control; under setting [2], 86 % of control; under setting [3], 89 % of control.
As for `COc1ccc(C(=O)NS(=O)(=O)c2ccc(C)cc2)cc1`, the T/C reads like this: under setting [4], 103 % of control; under setting [5], 98 % of control; under setting [6], 104 % of control.
`CC1CC(C)(C)N=C(C2CCCC2)O1` (stereo not drawn): the T/C was 96 % of control under setting [1], 96 % of control under setting [2] and 100 % of control under setting [3].
On to `Nc1nc(N)c2nc(CNc3ccc(C(=O)NC(CCC(=O)O)C(=O)O)cc3)ccc2n1` (stereo not drawn), for which the T/C reads like this: (endpoint: mean survival time, dose: 15.63 micrograms/kg/injection, schedule: Q01DX005 (ip), vehicle: sodium bicarbonate) 118 % of control; (endpoint: mean survival time, dose: 31.25 micrograms/kg/injection, schedule: Q01DX005 (ip), vehicle: sodium bicarbonate) 118 % of control; (endpoint: mean survival time, dose: 62.5 micrograms/kg/injection, schedule: Q01DX005 (ip), vehicle: sodium bicarbonate) 120 % of control and 110 % of control; (endpoint: mean survival time, dose: 125.0 micrograms/kg/injection, schedule: Q01DX005 (ip), vehicle: sodium bicarbonate) 113 % of control.
On to `CN(C)N=Nc1ccc(/C=C/C(=O)O)cc1`, for which the T/C is 105 % of control (endpoint: mean survival time, dose: 12.5 mg/kg/injection, schedule: Q01DX009 (ip), vehicle: Klucel (hydroxypropylcellulose) (HPC)); 111 % of control (endpoint: mean survival time, dose: 25.0 mg/kg/injection, schedule: Q01DX009 (ip), vehicle: Klucel (hydroxypropylcellulose) (HPC)); 150 % of control (endpoint: mean survival time, dose: 100.0 mg/kg/injection, schedule: Q01DX009 (ip), vehicle: Klucel (hydroxypropylcellulose) (HPC)).
For `C[N+](C)(C)c1ncnc2nc[nH]c12`, the T/C by setting is: (endpoint: mean survival time, dose: 12.5 mg/kg/injection, schedule: Q01DX009 (ip), vehicle: saline) 98 % of control and 108 % of control; (endpoint: mean survival time, dose: 25.0 mg/kg/injection, schedule: Q01DX009 (ip), vehicle: saline) 106 % of control and 108 % of control; under setting [7], 97 % of control and 112 % of control; under setting [8], 120 % of control and 121 % of control.
`OCC(O)C1OC(OCc2ccccc2)C(O)C(O)C1O` (stereo not drawn): the T/C by setting is: under setting [9], 101 % of control; (endpoint: mean survival time, dose: 200.0 mg/kg/injection, schedule: Q01DX001 (ip), vehicle: saline) 98 % of control; (endpoint: mean survival time, dose: 400.0 mg/kg/injection, schedule: Q01DX001 (ip), vehicle: saline) 98 % of control.
Regarding `CC1(C)N=C(N)N=C(N)N1c1ccc(CCCCc2ccc(S(=O)(=O)F)cc2Cl)c(Cl)c1`, the T/C by setting is: (endpoint: mean survival time, dose: 2.59 mg/kg/injection, schedule: Q01DX009 (ip), vehicle: Klucel (hydroxypropylcellulose) (HPC)) 105 % of control; (endpoint: mean survival time, dose: 4.32 mg/kg/injection, schedule: Q01DX009 (ip), vehicle: Klucel (hydroxypropylcellulose) (HPC)) 105 % of control; (endpoint: mean survival time, dose: 7.2 mg/kg/injection, schedule: Q01DX009 (ip), vehicle: Klucel (hydroxypropylcellulose) (HPC)) 116 % of control; (endpoint: mean survival time, dose: 7.5 mg/kg/injection, schedule: Q01DX009 (ip), vehicle: Klucel (hydroxypropylcellulose) (HPC)) 100 % of control; (endpoint: mean survival time, dose: 12.5 mg/kg/injection, schedule: Q01DX009 (ip), vehicle: saline with Tween-80) 117 % of control; (endpoint: mean survival time, dose: 15.0 mg/kg/injection, schedule: Q01DX009 (ip), vehicle: Klucel (hydroxypropylcellulose) (HPC)) 104 % of control. In addition, the T/C reads like this: (endpoint: mean survival time, dose: 30.0 mg/kg/injection, schedule: Q01DX009 (ip), vehicle: Klucel (hydroxypropylcellulose) (HPC)) 113 % of control; (endpoint: mean survival time, dose: 50.0 mg/kg/injection, schedule: Q04DX003 (ip), vehicle: saline) 103 % of control; (endpoint: mean survival time, dose: 60.0 mg/kg/injection, schedule: Q01DX009 (ip), vehicle: Klucel (hydroxypropylcellulose) (HPC)) 115 % of control; under setting [10], 104 % of control; under setting [4], 97 % of control; (endpoint: mean survival time, dose: 110.0 mg/kg/injection, schedule: Q04DX003 (ip), vehicle: saline) 121 % of control and 105 % of control. Moreover, the T/C reads like this: (endpoint: mean survival time, dose: 133.0 mg/kg/injection, schedule: Q04DX003 (ip), vehicle: saline with Tween-80) 158 % of control; (endpoint: mean survival time, dose: 300.0 mg/kg/injection, schedule: Q04DX003 (ip), vehicle: saline with Tween-80) 107 % of control; (endpoint: median survival time, dose: 27.0 mg/kg/injection, schedule: Q01DX009 (ip), vehicle: saline with Tween-80) 156 % of control; (endpoint: median survival time, dose: 40.0 mg/kg/injection, schedule: Q01DX009 (ip), vehicle: saline with Tween-80) 156 % of control and 162 % of control; (endpoint: median survival time, dose: 60.0 mg/kg/injection, schedule: Q01DX009 (ip), vehicle: saline with Tween-80) 158 % of control; (endpoint: median survival time, dose: 90.0 mg/kg/injection, schedule: Q01DX009 (ip), vehicle: saline with Tween-80) 168 % of control. Moreover, the T/C was 167 % of control (endpoint: median survival time, dose: 200.0 mg/kg/injection, schedule: Q04DX003 (ip), vehicle: saline with Tween-80) and 164 % of control (endpoint: median survival time, dose: 225.0 mg/kg/injection, schedule: Q04DX003 (ip), vehicle: saline with Tween-80).
Consider `COc1cc2c(C(=O)O)cc(-c3ccc(Cl)cc3)nc2cc1Cl`, for which the T/C under setting [9] was 98 % of control.
Turning to `CC(C)CC1(C(C)C)C(=O)NC(=S)NC1=O`, the T/C runs as follows: (endpoint: mean survival time, dose: 5.0 mg/kg/injection, schedule: Q01DX001 (ip), vehicle: saline) 102 % of control; (endpoint: mean survival time, dose: 10.0 mg/kg/injection, schedule: Q01DX001 (ip), vehicle: saline) 96 % of control; (endpoint: mean survival time, dose: 20.0 mg/kg/injection, schedule: Q01DX001 (ip), vehicle: saline) 98 % of control; (endpoint: mean survival time, dose: 40.0 mg/kg/injection, schedule: Q01DX001 (ip), vehicle: saline) 101 % of control.
For the molecule `Cc1cc(CO)c(O)c(CO)c1`, the T/C under setting [4] is 91 % of control, the T/C under setting [5] is 91 % of control and the T/C under setting [6] is 91 % of control.
Consider `c1ccc2c(c1)ccc1c3ccccc3[nH]c21`, for which the T/C is 94 % of control under setting [11]; 97 % of control under setting [12]; 96 % of control (endpoint: mean survival time, dose: 400.0 mg/kg/injection, schedule: Q01DX009 (ip), vehicle: other).
For `O=C1C(=O)c2cccnc2C(NCc2ccccc2)=C1Cl`, the T/C is, setting by setting: under setting [10], 98 % of control; (endpoint: mean survival time, dose: 150.0 mg/kg/injection, schedule: Q04DX003 (ip), vehicle: saline) 101 % of control; (endpoint: mean survival time, dose: 300.0 mg/kg/injection, schedule: Q04DX003 (ip), vehicle: saline) 96 % of control.
`CCOC1(C)OC2OC(COC(c3ccccc3)(c3ccccc3)c3ccccc3)C(O)C(O)C2O1` (stereo not drawn): the T/C by setting is: (endpoint: mean survival time, dose: 12.5 mg/kg/injection, schedule: Q01DX009 (ip), vehicle: other) 97 % of control; (endpoint: mean survival time, dose: 25.0 mg/kg/injection, schedule: Q01DX009 (ip), vehicle: other) 103 % of control; (endpoint: mean survival time, dose: 50.0 mg/kg/injection, schedule: Q01DX009 (ip), vehicle: other) 101 % of control; under setting [11], 98 % of control; under setting [12], 101 % of control.
For the molecule `Brc1c(Br)c(Br)c2n[nH]nc2c1Br`, the T/C reads like this: under setting [7], 104 % of control; under setting [8], 104 % of control; (endpoint: mean survival time, dose: 200.0 mg/kg/injection, schedule: Q01DX009 (ip), vehicle: saline) 108 % of control.
For the molecule `CCc1ccc(CC)c(CC)c1CC`, the T/C is 98 % of control (endpoint: mean survival time, dose: 50.0 mg/kg/injection, schedule: Q01DX009 (ip), vehicle: saline with Tween-80); 95 % of control under setting [4]; 98 % of control (endpoint: mean survival time, dose: 100.0 mg/kg/injection, schedule: Q04DX003 (ip), vehicle: saline with Tween-80); 92 % of control under setting [5]; 104 % of control (endpoint: mean survival time, dose: 200.0 mg/kg/injection, schedule: Q04DX003 (ip), vehicle: saline with Tween-80).
Regarding `O=C(c1cccnc1)c1cn(C2OC(CO)C(O)C(O)C2O)c2ccccc12` (stereo not drawn), the T/C reads like this: (endpoint: mean survival time, dose: 12.5 mg/kg/injection, schedule: Q01DX005 (ip), vehicle: other) 93 % of control; (endpoint: mean survival time, dose: 25.0 mg/kg/injection, schedule: Q01DX005 (ip), vehicle: other) 97 % of control; (endpoint: mean survival time, dose: 50.0 mg/kg/injection, schedule: Q01DX005 (ip), vehicle: other) 104 % of control; (endpoint: mean survival time, dose: 100.0 mg/kg/injection, schedule: Q01DX005 (ip), vehicle: other) 97 % of control; (endpoint: mean survival time, dose: 200.0 mg/kg/injection, schedule: Q01DX005 (ip), vehicle: other) 95 % of control.
`CCC1(CC)OC2=C(CC(C#N)(C#N)C(C#N)(C#N)C2)O1`: the T/C is 103 % of control (endpoint: mean survival time, dose: 5.0 mg/kg/injection, schedule: Q04DX003 (ip), vehicle: other); 92 % of control (endpoint: mean survival time, dose: 10.0 mg/kg/injection, schedule: Q04DX003 (ip), vehicle: other); 96 % of control (endpoint: mean survival time, dose: 20.0 mg/kg/injection, schedule: Q04DX003 (ip), vehicle: other).

The record behind these values is PubChem BioAssay AID256 (DTP/NCI, 2004).
